ChEMBL document CHEMBL1122804, “Synthesis of imidazo[1,2-a]pyrazine derivatives with uterine-relaxing, antibronchospastic, and cardiac-stimulating properties” (1984)
pEC50: −log10 of the molar value.

Legend:
Format in all cases: functional
Rattus norvegicus [1] = organism: Rattus norvegicus; test: Inhibition of the uterine smooth muscle contraction induced by histamine on the isolated rat uterus.; details: read-out: ED50
Cavia porcellus [2] = organism: Cavia porcellus; test: Inhibition of the bronchospasm induced by histamine in guinea pig at the high concentration/dose.
Cavia porcellus [3] = organism: Cavia porcellus; test: Inhibition of the bronchospasm induced by histamine in guinea pigat the high concentration / dose
Rattus norvegicus [4] = organism: Rattus norvegicus; test: Inhibition of the uterine smooth muscle contraction induced by histamine on the isolated rat uterus; details: read-out: ED50 (the source's name)
Rattus norvegicus [5] = organism: Rattus norvegicus; test: Inhibition of the uterine smooth muscle contraction induced by histamine on the isolated rat uterus at high dose; details: read-out: ED50 (the source's name)
Rattus norvegicus [6] = organism: Rattus norvegicus; test: Inhibition of the uterine smooth muscle contraction induced by histamine on the isolated rat uterus at high dose.; details: read-out: ED50 (the source's name)
Rattus norvegicus [7] = organism: Rattus norvegicus; test: Inhibition of the uterine smooth muscle contraction induced by histamine on the isolated rat uterus at high dose /concentration.; details: read-out: ED50 (the source's name)

Row | Compound | pEC50 (Rattus norvegicus [1]) | other results
1 | CCOC(=O)c1[nH]c2nccnc2c1C | 3.99 | –
2 | Brc1cncc2nccn12 | 3.54 | –
3 | CCOC(=O)c1cn2cc(Br)nc(Br)c2n1 | 3.82 | ED50 (Cavia porcellus [2]): >16 nM
4 | Brc1cn2ccnc2c(Br)n1 | 3.62 | –
5 | N#Cc1cn2ccncc2n1 | 2.62 | –
6 | NC(=O)c1cn2ccncc2n1 | 2.82 | –
7 | CCOC(=O)c1c(C)nc2cnccn12 | 3.82 | –
8 | ClCc1cn2ccncc2n1 | 2.85 | ED50 (Cavia porcellus [3]): >72 nM
9 | N#Cc1cn2c(Br)cncc2n1 | 3.11 | –
10 | NC(=O)c1cn2c(Br)cncc2n1 | 3.39 | –
11 | c1cn2ccnc2cn1 | – | pEC50 (Rattus norvegicus [4]): 8.80
12 | CCOC(=O)Cc1cn2cc(Br)nc(Br)c2n1 | 4.02 | –
13 | CC(=O)c1c(Cl)nc2cnccn12 | 3.06 | –
14 | CCOC(=O)c1cn2ccncc2n1 | 2.95 | –
15 | Cc1cn2ccncc2n1 | 3.12 | –
16 | COC(=O)c1cn2ccncc2n1 | – | pEC50 (Rattus norvegicus [5]): < 8.62
17 | CCOC(=O)c1cn2c(Br)cncc2n1 | 2.99 | –
18 | O=C(O)c1cn2ccncc2n1 | 2.76 | –
19 | Nc1nc2cnccn2c1Br | – | pEC50 (Rattus norvegicus [6]): 9.47
20 | N#Cc1cn2cc(Br)nc(Br)c2n1 | – | pEC50 (Rattus norvegicus [6]): 10.05
21 | NC(=O)c1cn2cc(Br)nc(Br)c2n1 | – | pEC50 (Rattus norvegicus [7]): 9.48
22 | OCc1cn2ccncc2n1 | 2.57 | –
23 | Cn1c(=O)c2nc[nH]c2n(C)c1=O [THEOPHYLLINE] | 3.05 | –
